The subject of one experiment is HCV replicon. Put plainly: HCV replicon FRET / luciferase assay. The format is cell-based. The settings on record: Hepatitis C virus; HCV replicon cells; 50% reduction in FRET or luciferase activity; read-out: EC50. Here is the method: FRET Assay Preparation. The HCV FRET screening assay was performed in 96-well cell culture plates. The FRET peptide (Anaspec, Inc.) (Taliani et al., Anal. Biochem. 1996, 240, 60-67) contains a fluorescence donor, EDANS, near one end of the peptide and an acceptor, DABCYL, near the other end. The fluorescence of the peptide is quenched by […] resonance energy transfer (RET) between the donor and the acceptor, but as the NS3 protease cleaves the peptide the products are released from RET quenching and the fluorescence of the donor becomes apparent. The assay reagent was made as follows: 5× cell Luciferase cell culture lysis reagent from Promega (#E153A) diluted to 1× with dH2O, NaCl added to 150 mM final, the FRET peptide diluted to 20 μM final from a 2 mM stock.
To prepare plates, HCV replicon cells, with or without a Renilla luciferase reporter gene, were trypsinized and plated in a 96-well plate with titrated test compounds added in columns 3 through 12; columns 1 and 2 contained a control compound (HCV control inhibitor), and the bottom row contained cells with DMSO only. The plates were then placed in a CO2 incubator at 37° C.
Assays. Subsequent to addition of the test compounds described above (FRET Assay Preparation), at various times the plate was removed and Alamar blue solution (Trek Diagnostics, #00-100) was added to measure cellular toxicity. After reading in a Cytoflour 4000 instrument (PE Biosystems), plates were rinsed with PBS and then used for FRET assay by the addition of 30 ul of the FRET peptide assay reagent described above (FRET Assay Preparation) per well. The plate was then placed into the Cytoflour 4000 instrument which had been set to 340 excite/490 emission, automatic mode for up to 20 cycles and the plate read in a kinetic mode. Typically, the signal to noise using an endpoint analysis after the reads was at least three-fold. Alternatively, after Alamar blue reading, plates were rinsed with PBS, then used for luciferase assay using the Promega Dual-Glo Luciferase Assay System or the Promega EnduRen Live Cell Substrate assay.
Compound analysis was performed by quantification of the relative HCV replicon inhibition and the relative cytotoxicity values. To calculate cytoxicity values, the average Alamar Blue fluorescence signals from the control wells were set as 100% non-toxic. The individual signals in each of the compound test wells were then divided by the average control signal and multiplied by 100% to determine […]. To calculate the HCV replicon inhibition values, an average background value was obtained from the two wells containing the highest amount of HCV control inhibitor at the end of the assay period. These numbers were similar to those obtained from naive Huh-7 cells. The background numbers were then subtracted from the average signal obtained from the control wells and this number was used as 100% activity. The individual signals in each of the compound test wells were then divided by the averaged control values after background subtraction and multiplied by 100% to determine percent activity. EC50 values were calculated as the concentration which caused a 50% reduction in FRET or luciferase activity. The two numbers generated for the compound plate, percent cytoxicity and percent activity, were used to determine compounds of interest for further analysis.
(In general: In antiviral work, replicon cells carry a viral genome segment that copies itself.)

For a further experiment, the target named is T1, HCV NS5B (Hepatitis C virus genotype 1b, UniProt Q9WMX2).
T1 construct: The protein was expressed with an 18 amino acid C-terminal truncation to enhance the solubility; made in house; host or cells: E. coli BL21(DE3)
T1 sequence (Q9WMX2 2420-2992): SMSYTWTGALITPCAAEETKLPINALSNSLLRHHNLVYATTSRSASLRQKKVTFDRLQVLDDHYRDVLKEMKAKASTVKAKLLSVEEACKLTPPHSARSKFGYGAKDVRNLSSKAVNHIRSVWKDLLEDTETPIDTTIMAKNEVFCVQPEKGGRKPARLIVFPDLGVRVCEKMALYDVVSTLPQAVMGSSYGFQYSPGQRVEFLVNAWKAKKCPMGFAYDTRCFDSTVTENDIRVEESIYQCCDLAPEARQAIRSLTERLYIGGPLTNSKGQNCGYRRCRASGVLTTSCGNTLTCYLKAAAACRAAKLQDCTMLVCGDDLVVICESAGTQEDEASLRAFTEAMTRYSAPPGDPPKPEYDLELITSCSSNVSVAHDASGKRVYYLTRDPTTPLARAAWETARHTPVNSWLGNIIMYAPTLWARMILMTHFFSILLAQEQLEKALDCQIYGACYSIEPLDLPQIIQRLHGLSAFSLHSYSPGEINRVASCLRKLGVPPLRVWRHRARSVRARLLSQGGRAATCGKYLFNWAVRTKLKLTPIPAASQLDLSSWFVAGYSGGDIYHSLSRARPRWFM
Put plainly: HCV NS5B RdRp enzyme assay (standard or modified). As to conditions: HCV NS5B RdRp genotype 1b; standard or modified enzyme assay not specified; read-out: IC50. The format is biochemical. Here is the method: HCV NS5B RdRp cloning, expression, and purification. The cDNA encoding the NS5B protein of HCV, genotype 1b, was cloned into the pET21a expression vector. The protein was expressed with an 18 amino acid C-terminal truncation to enhance the solubility. The E. coli competent cell line BL21(DE3) was used for expression of the protein. Cultures were grown at 37° C. for ˜4 hours until the cultures reached an optical density of 2.0 at 600 nm. The cultures were cooled to 20° C. and induced with 1 mM IPTG. Fresh ampicillin was added to a final concentration of 50 μg/ml and the cells were grown overnight at 20° C.
Cell pellets (3 L) were lysed for purification to yield 15-24 mgs of purified NS5B. The lysis buffer consisted of 20 mM Tris-HCl, pH 7.4, 500 mM NaCl, 0.5% triton X-100, 1 mM DTT, 1mM EDTA, 20% glycerol, 0.5 mg/ml lysozyme, 10 mM MgCl2, 15 ug/ml deoxyribonuclease I, and Complete TM protease inhibitor tablets (Roche). After addition of the lysis buffer, frozen cell pellets were resuspended using a tissue homogenizer. To reduce the viscosity of the sample, aliquots of the lysate were sonicated on ice using a microtip attached to a Branson sonicator. The sonicated lysate was centrifuged at 100,000×g for 1 hr at 4° C. and filtered through a 0.2 μm filter unit (Corning).
The protein was purified using two sequential chromatography steps: Heparin sepharose CL-6B and polyU sepharose 4B (Pharmacia). The chromatography buffers were identical to the lysis buffer but contained no lysozyme, deoxyribonuclease I, MgCl2 or protease inhibitor and the NaCl concentration of the buffer was adjusted according to the requirements for charging the protein onto the column. Each column was eluted with a NaCl gradient which varied in length from 5-50 column volumes depending on the column type. After the final chromatography step, the resulting purity of the enzyme is >90% based on SDS-PAGE analysis. The enzyme was aliquoted and stored at −80° C.
Standard HCV NS5B RdRp enzyme assay. HCV RdRp genotype 1b assays were run in a final volume of 60 μl in 96 well plates (Corning 3600). The assay buffer is composed of 20 mM Hepes, pH 7.5, 2.5 mM KCl, 2.5 mM MgCl2, 1 mM DTT, 1.6 U RNAse inhibitor (Promega N2515), 0.01 mg/ml BSA (Sigma B6917), and 2% glycerol. All compounds were serially diluted (3-fold) in DMSO and diluted further in water such that the final concentration of DMSO in the assay was 2%. HCV RdRp genotype 1b enzyme was used at a final concentration of 28 nM. A polyA template was used at 6 nM, and a biotinylated oligo-dT12 primer was used at 180 nM final concentration. Template was obtained commercially (Amersham 27-4110). Biotinylated primer was prepared by Sigma Genosys. 3H-UTP was used at 0.6 μCi (0.29 μM total UTP). Reactions were initiated by the addition of enzyme, incubated at 30° C. for 60 min, and stopped by adding 25 μl of 50 mM EDTA containing SPA beads (4 μg/pl, Amersham RPNQ 0007). Plates were read on a Packard Top Count NXT after >1 hr incubation at room temperature.
Modified HCV NS5B RdRp enzyme assay. A modified enzyme assay was performed essentially as described for the standard enzyme assay except for the following: The biotinylated oligo dT12 primer was precaptured on streptavidin-coated SPA beads by mixing primer and beads in assay buffer and incubating at room temperature for one hour. Unbound primer was removed after centrifugation. The primer-bound beads were resuspended in 20 mM Hepes buffer, pH 7.5 and used in the assay at final concentrations of 20 nM primer and 0.67 μg/μl beads. Order of addition in the assay: enzyme (1.75 nM) was added to diluted compound followed by the addition of a mixture of template (0.36 nM), 3H-UTP (0.6 μCi, 0.29 μM), and primer-bound beads, to initiate the reaction; concentrations given are final. Reactions were allowed to proceed for 4 hours at 30° C.
IC50 values for compounds were determined using seven different [I]. […]

Consider `COc1ccc2c(c1)C1CC1(C(=O)N1CCN(C)C[C@H]1c1ccccc1)Cn1c-2c(C2CCCCC2)c2ccc(C(=O)NS(=O)(=O)C(C)C)cc21` (some centres unmarked), for which, in the experiment on HCV replicon, the EC50 was in the range of 3 to 1000 nM. Besides, the IC50 at HCV NS5B is 3 to 1000 nM.

Turning to `COc1ccc2c(c1)C1CC1(C(=O)N1CCN(C)CC1c1ccccc1)Cn1c-2c(C2CCCCC2)c2ccc(C(=O)NS(=O)(=O)N(C)C)cc21` (centres unmarked) [drawing 44], in the experiment with HCV replicon, the EC50 is 3 to 1000 nM. Moreover, the IC50 at HCV NS5B lay in the range of 3 to 1000 nM.

As for `COc1ccc2c(c1)C1CC1(C(=O)N1CCN(C)CC1c1ccccc1)Cn1c-2c(C2CCCCC2)c2ccc(C(=O)NS(=O)(=O)C(C)C)cc21` (centres unmarked) [drawing 74], the EC50 in the experiment with HCV replicon is 3 to 1000 nM. Besides, on HCV NS5B, the IC50 is 3 to 1000 nM.

Turning to `COc1ccc2c(c1)C1C[C@]1(C(=O)N1CCN(C)CC1c1ccccc1)Cn1c-2c(C2CCCCC2)c2ccc(C(=O)NS(=O)(=O)C(C)C)cc21` (some centres unmarked) [drawing 78], the EC50 with HCV replicon was in the range of 3 to 1000 nM. Also, on HCV NS5B, the concentration for half-maximal inhibition (IC50) lay within 3 to 1000 nM.

For orientation: EC50 means the concentration at which the effect is half-maximal. A word on the IC50: it is the midpoint of a concentration-inhibition curve.

For the origin of these results see patent publication US7538102B2, “Compounds for the treatment of Hepatitis C” (Bristol-Myers Squibb Company, priority 2007, dated 2009).
